# Reference: US6403054B1, “Ternary ligand complexes useful as radiopharmaceuticals” (Bristol-Myers Squibb Pharma Company, priority 1997, dated 2002)
# Experiment: Canine imaging and biodistribution model
# Details: for route of excretion: i.v. infusion, gamma camera images and biodistribution
# Procedure: A canine imaging and biodistribution model was used to evaluate the radiopharmaceuticals of Examples 5 and 7.
# Adult beagle dogs of either sex (9-13 kg) were anesthetized with pentobarbital sodium (35 mg/kg,i.v.) and ventilated with room air via an endotracheal tube (12 strokes/min, 25 ml/kg). For arterial pressure determination, the right femoral artery was cannulated with a saline-filled polyethylene catheter (PE-240) and connected to a Statham pressure transducer (P23ID; Oxnard, Calif.). Mean arterial blood pressure was determined via damping the pulsatile pressure signal. Heart rate was monitored using a cardiotachometer (Biotach, Grass Quincy, Mass.) triggered from a lead II electrocardiogram generated by limb leads. All parameters were monitored continuously on a polygraph recorder (model 7D Grass) at a paper speed of 10 mm/min or 25 mm/sec. The right femoral vein was cannulated (PE-240) for drug administration. A control blood sample was collected for hematology analysis on an MCA210 (APTT, PT), K1000 (cell number), and Chrono Log Aggregometer (collagen induced platelet aggregation). Blood samples were also collected immediately after infusion, 30, 60, and 120 minutes post infusion. Samples of blood were retained for blood clearance determination at control, immediately following infusion, 15, 30, 60, 90, and 120 minutes post infusion. Administration of test article was given no earlier than 20 minutes post surgery. The test article was administered as a 10 cc slow infusion over 5 minutes. Images were acquired by a gamma camera over 5 minutes and taken during infusion, 5, 15, 30, 60, 90, 120 minutes post infusion (Digital Dyna Camera, Picker International, Cleveland, Ohio). At the end of the protocol the animal was euthanized with an overdose of pentobarbital and a biodistribution performed. The samples collected for biodistribution (muscle, liver, kidney, bile, spleen, heart, lung thyroid, and urine) and the blood clearance samples were weighed and the amount of activity determined via a gamma well counter (LKB 1282, Wallac Inc).
# [1] = at 120 min post-injection, beagle dogs
Substance,route of excretion (anesthetized adult beagle dogs),"clearance from the blood (anesthetized adult beagle dogs, slow i.v. infusion over 5 minutes, blood samples up to 120 minutes post infusion)",portion of the radiopharmaceutical located in the bladder [1],"radiopharmaceutical remaining in the blood, the muscle or other organs [1]","clearance from the blood (dog, in vivo, iv)"
[^99mTc (HYNICamide) (tricine) (TPPTS)] [Example 7],predominantly renal,rapid clearance,vast majority,very little remaining,
[^99mTc (HYPY) (tricine) (TFP)] [Example 5],predominantly hepatobiliary,,,,Rapid blood clearance
